The values that follow come from patent publication US20260259194A1, “METHOD OF MONITORING MESENCHIMAL STEM CELL (MSC) POTENCY AND IMPROVING MSC DIFFERENTIATION POTENTIAL” (AGENCY FOR SCIENCE, TECHNOLOGY AND RESEARCH, priority 2022, published 2026).

Type in all cases: cell-based, human
Assay [1] has as its system MSCs. Nature of the assay: MSC proliferation with HOXA9 inhibitor. As to conditions: compared with DMSO control. Here is the method: (§1) To validate the effects of HOXA9 knockdown on MSCs, effects of HOXA9 specific inhibitor DB818 on MSCs were determined.
In assay [2] the test system is MSCs. Kind of assay: CFU-F (colony formation) of MSCs. As to conditions: compared with DMSO control. How it is done: as §1
In assay [3] the test system is MSCs. Kind of assay: Three-lineage differentiation of MSCs, staining (oil red, AP, alcian blue). As to conditions: compared with DMSO control.
Source text: (§2) Differentiation potential is the most important property of MSCs. To determine the effects of HOXA9 knockdown on the differentiation potential of MSCs into three lineages, HOXA9 knockdown and scrambled MSCs were induced into three lineages of differentiation. Compared with scrambled control, HOXA9 knockdown decreased oil red stain for oil droplet in adipogenesis, AP stain for alkaline phosphatase in osteogenesis and alcian blue stain for proteoglycan in chondrogenesis [FIG. 6a]. Stain data were validated by qPCR for lineage specific genes, compared with scrambled control, HOXA9 knockdown decreased adipogenenic genes (CEBPα, PPARγ, LPL and αP2), osteogenic genes (OC, OPN and ALP) and chondrogenic genes (COL2A1, AGC1, SOX9 and COL10A1) [FIG. 6b]. AP assay for quantifying alkaline phosphatase activity was consistent with AP stain, HOXA9 knockdown decreased alkaline phosphatase activity [FIG. 6b].
as §1

Assay [4] has as its system MSCs. Nature of the assay: qPCR for lineage specific genes in differentiated MSCs. The following applies: compared with control.
Source text: as §2, §1

As to `N=C(N)c1ccc(-c2ccc(-c3nc4ccc(C(=N)N)cc4[nH]3)s2)cc1` [DB818], the MSC proliferation result in the assay on MSCs [1] is “abolished”. Besides, the CFU-F result in the assay on MSCs [2] is recorded as “abolished”. Also, the “oil red stain for oil droplet in adipogenesis” value in the assay on MSCs [3] (adipogenesis) is “decreased”. Besides, the “alcian blue stain for proteoglycan in chondrogenesis” value with MSCs [3] (chondrogenesis) was “decreased”. The “AP stain for alkaline phosphatase in osteogenesis” value with MSCs [3] (osteogenesis) is “decreased”. In addition, in the assay with MSCs [4], the “adipogenenic genes (CEBPα, PPARγ, LPL and αP2)” value is listed as “decreased”; the “chondrogenic genes (COL2A1, AGC1, SOX9 and COL10A1)” value was “decreased”; the “osteogenic genes (RUNX2 and COL1A1)” value is given as “decreased”.
